In US20040224981A1, “Antibacterial methods and compositions” (priority 2003, published 2004):
Like-named read-outs stand apart in the source and are kept apart here.

How the values were obtained:
S. pyogenes = experiment: MIC against S. pyogenes; assay type: cell-based, Streptococcus pyogenes; details: for MIC: Streptococcus pyogenes, Table 4, read-out: MIC
Description: (§1) The MRS inhibitor 4 alone and in combination with mupirocin (mupirocin salt and 1:1 combination) were tested against a collection of Gram-positive pathogens.
S. pyogenes is also a significant skin pathogen and 48 recent clinical isolates were tested for their susceptibility to MRSi compound 5 alone (acetate) and in combination (1:1) with mupirocin (mupirocinate).

S. aureus = experiment: MIC against S. aureus strains and clinical isolates (broth microdilution); assay type: cell-based, Staphylococcus aureus; details: for MIC / MIC50 / MIC90: Staphylococcus aureus; for MIC50: read-out: MIC50; for MIC90: read-out: MIC90
Procedure, shortened: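 Broth microdilution per NCCLS in cation-supplemented Mueller-Hinton broth, final inoculum 5×10^5 CFU/ml from 0.5 McFarland suspensions diluted 1:10. Trays incubated aerobically overnight with quality control strains each run. Checkerboard FIC index: ≦0.5 synergy, >0.5 to 4 additive/indifferent, >4.0 antagonism.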

S. hemolyticus = experiment: MIC against S. hemolyticus; assay type: cell-based; details: Table 4, read-out: MIC
Description: as §1
(§2) The MRS inhibitor 8 was also prepared as a fusidate and mupirocinate salt and tested for antibacterial activity against Gram-positive bacteria (Table 3). […] MRSi compound 8 alone and the fusidate and mupirocin salts were active against mupirocin-resistant S. aureus and S. epidermidis and organisms such as E. faecalis that are not susceptible to mupirocin.
(§3) The MRS inhibitor 5 acetate and mupirocin salts were tested against a collection of Gram-positive bacteria.

S. epidermidis = experiment: MIC against S. epidermidis; assay type: cell-based; details: Staphylococcus epidermidis, Table 4, read-out: MIC
Description: as §1, §2, §3

[1] = test system: MRS-resistant mutants of S. aureus; experiment: Susceptibility (MIC) of MRS-resistant mutants of S. aureus; assay type: cell-based; details: Staphylococcus aureus
Description: MRS-resistant mutants generated in vitro in either serial passage or spontaneous resistance development studies were evaluated for susceptibility to mupirocin alone and in a 1:1 combination with MRSi compound 5.

E. faecium = experiment: MIC against E. faecium; assay type: cell-based
Description: MRSi compound 5 alone and in combination with mupirocin was tested recent clinical isolates of E. faecalis (n=28) and E. faecium (n=23). Both the acetate salt and mupirocinate salts of MRSi compound 5 maintained potent activity against vancomycin-susceptible and—resistant enterococci (Tables 8, 9, and 10).

[2] = 48 recent clinical isolates of S. pyogenes
[3] = all S. aureus isolates of Table 6
[4] = oxacillin-resistant S. aureus, Oxa-R (42)
[5] = oxacillin-susceptible S. aureus, Oxa-S (20)
[6] = recent clinical isolates of S. aureus, All (62)
[7] = recent clinical isolates of E. faecium, ALL (23)

C=C(F)c1sc(CNCCCNc2cc(=O)c3ccccc3[nH]2)c(C)c1Br [MRSi Cmpd 5 acetate, N-(4-bromo-5-(1-fluorovinyl)-3-methylthiophen-2-ylmethyl)-N′-(1H-quinolin-4-one)propane-1,3-diamine]
MIC50 (S. pyogenes; [2]): 0.06 µg/mL | MIC90 (S. pyogenes; [2]): 0.12 µg/mL | Mode (MIC) (S. pyogenes; [2]): 0.06 µg/mL | MIC Range (S. pyogenes; 48 recent clinical isolates of S. pyogenes, in µg/mL): 0.03 to 0.25 | MIC (S. pyogenes; ATCC19615, S. pyogenes ATCC 19615): 0.12 µg/mL | MIC (S. pyogenes; S. pyogenes MB000143): 0.12 µg/mL | MIC (S. aureus; ATCC29213, Table 4, S. aureus ATCC 29213, read-out: MIC): 0.06 µg/mL | MIC (S. aureus; ATCC43300, Table 4, S. aureus ATCC 43300 (ORSA), read-out: MIC): 0.25 µg/mL | MIC (S. aureus; NRS 1 / VISA, VISA, S. aureus NRS1 (Mu50), read-out: MIC): 0.015 µg/mL | MIC (S. aureus; NRS 3 / VISA, VISA, S. aureus NRS3 (HIP5827), read-out: MIC): 0.008 µg/mL | MIC (S. aureus; NRS 4 / VISA, VISA, S. aureus NRS4 (HIP5836), read-out: MIC): 0.008 µg/mL | MIC (S. aureus; NRS 18 / VISA, VISA, S. aureus NRS18 (HIP06854), read-out: MIC): 0.03 µg/mL | MIC (S. aureus; NRS 24 / VISA, VISA, S. aureus NRS24 (HIP09143), read-out: MIC): 0.06 µg/mL | MIC (S. aureus; NRS 49 / VISA, VISA, S. aureus NRS49 (Korea), read-out: MIC): 0.008 µg/mL | MIC (S. aureus; NRS54, Table 6, high-level mupirocin-resistant S. aureus NRS54, read-out: MIC): 0.06 µg/mL | MIC (S. aureus; NRS 54 / VISA, VISA, S. aureus NRS54 (Brazil), read-out: MIC): 0.06 µg/mL | MIC (S. aureus; NRS 56 / VISA, VISA, S. aureus NRS56 (Brazil), read-out: MIC): 0.008 µg/mL | MIC (S. aureus; NRS107, Table 4, S. aureus NRS107 (mupA), read-out: MIC): ≤ 0.008 µg/mL | MIC (S. aureus; NRS107, Table 6, high-level mupirocin-resistant S. aureus NRS107, read-out: MIC): ≤ 0.008 µg/mL | MIC (S. aureus; NRS127, Table 6, low-level mupirocin-resistant S. aureus NRS127, read-out: MIC): 0.5 µg/mL | MIC (S. aureus; Table 6, S. aureus (mupirocin-susceptible) 010-100, read-out: MIC): 0.03 µg/mL | MIC (S. aureus; Table 6, S. aureus (mupirocin-susceptible) 087-2789, read-out: MIC): 0.06 µg/mL | MIC (S. aureus; Table 6, S. aureus (mupirocin-susceptible) LZ9, read-out: MIC): 0.03 µg/mL | MIC (S. aureus; Table 6, S. aureus (mupirocin-susceptible) LZ10, read-out: MIC): 0.03 µg/mL | MIC (S. aureus; Table 6, high-level mupirocin-resistant S. aureus 010-420, read-out: MIC): 0.03 µg/mL | MIC (S. aureus; Table 6, high-level mupirocin-resistant S. aureus 25-670, read-out: MIC): 0.03 µg/mL | MIC (S. aureus; Table 6, high-level mupirocin-resistant S. aureus 87-2797, read-out: MIC): 0.03 µg/mL | MIC (S. aureus; Table 6, high-level mupirocin-resistant S. aureus 1079101, read-out: MIC): 0.06 µg/mL | MIC (S. aureus; Table 6, high-level mupirocin-resistant S. aureus LZ1, read-out: MIC): 0.015 µg/mL | MIC (S. aureus; Table 6, high-level mupirocin-resistant S. aureus LZ6, read-out: MIC): 0.06 µg/mL | MIC (S. aureus; Table 6, low-level mupirocin-resistant S. aureus 014-354, read-out: MIC): 0.015 µg/mL | MIC (S. aureus; Table 6, low-level mupirocin-resistant S. aureus 031-1334, read-out: MIC): 0.015 µg/mL | MIC (S. aureus; Table 6, low-level mupirocin-resistant S. aureus 036-1298, read-out: MIC): ≤ 0.008 µg/mL | MIC (S. aureus; Table 6, low-level mupirocin-resistant S. aureus 1081148, read-out: MIC): 0.5 µg/mL | MIC (S. aureus; Table 6, low-level mupirocin-resistant S. aureus LZ8, read-out: MIC): 0.03 µg/mL | MIC (S. aureus; Table 6, low-level mupirocin-resistant S. aureus Miles Hall, read-out: MIC): ≤ 0.008 µg/mL | MIC (S. aureus; VISA, all 8 vancomycin-intermediate S. aureus (VISA) isolates, read-out: MICs ranging): 0.008 to 0.25 µg/mL | MIC50 (S. aureus; [3]): 0.03 µg/mL | MIC90 (S. aureus; [3]): 0.5 µg/mL | MIC50 (S. aureus; [4]): 0.03 µg/mL | MIC90 (S. aureus; [4]): 0.5 µg/mL | MIC (S. aureus; oxacillin-resistant S. aureus, Oxa-R (42), read-out: MIC Mode): 0.03 µg/mL | MIC50 (S. aureus; [5]): 0.03 µg/mL | MIC90 (S. aureus; [5]): 0.06 µg/mL | MIC (S. aureus; oxacillin-susceptible S. aureus, Oxa-S (20), read-out: MIC Mode): 0.06 µg/mL | MIC50 (S. aureus; [6]): 0.03 µg/mL | MIC90 (S. aureus; [6]): 0.12 µg/mL | MIC (S. aureus; recent clinical isolates of S. aureus, All (62), read-out: MIC Mode): 0.06 µg/mL | MIC Range (S. aureus; [3]): ≦0.008-0.5 μg/mL | MIC Range (S. aureus; [4]): ≦0.008 to 1 μg/mL | MIC Range (S. aureus; [5]): ≦0.008 to 0.12 μg/mL | MIC Range (S. aureus; [6]): ≦0.008 to 1 μg/mL | MIC (S. hemolyticus; S. hemolyticus NRS50): 0.12 µg/mL | MIC (S. hemolyticus; S. hemolyticus NRS116): 0.25 µg/mL | MIC (S. epidermidis; S. epidermidis NRS6): 0.25 µg/mL | MIC (S. epidermidis; S. epidermidis NRS7): 0.06 µg/mL | MIC (S. epidermidis; S. epidermidis NRS8): 0.12 µg/mL | MIC ([1]; ATCC29213, S. aureus ATCC 29213, metS wild-type): 0.06 µg/mL | MIC ([1]; ATCC43300, S. aureus ATCC 43300, metS wild-type): 0.06 µg/mL | MIC ([1]; S. aureus SP-1A2, metS A247E): 4 µg/mL | MIC ([1]; S. aureus SP-1B5, metS I57N): 8 µg/mL | MIC ([1]; S. aureus SP-2B5, metS I57N, R100S): 16 µg/mL | MIC ([1]; S. aureus SP-2C4, metS L213W): 4 µg/mL | MIC ([1]; S. aureus SP-2D4, metS I57N): 16 µg/mL | MIC ([1]; S. aureus SP-9B5, metS I57N, V296F): 4 µg/mL | MIC ([1]; S. aureus SP-21A, metS A77V): 4 µg/mL | MIC ([1]; S. aureus SR1, metS I57N): 4 µg/mL | MIC50 (E. faecium; E. faecium, Van-R(12)): < 0.004 µg/mL | MIC90 (E. faecium; E. faecium, Van-R(12)): < 0.004 µg/mL | Mode (MIC) (E. faecium; E. faecium, Van-R(12)): < 0.004 µg/mL | Range (MIC) (E. faecium; E. faecium, Van-R(12), in µg/mL): <0.004-0.03 | MIC50 (E. faecium; E. faecium, Van-S (11)): ≦0.004 | MIC90 (E. faecium; E. faecium, Van-S (11)): ≦0.004 | Mode (MIC) (E. faecium; E. faecium, Van-S (11)): ≦0.004 | Range (MIC) (E. faecium; E. faecium, Van-S (11)): ≦0.004 | MIC50 (E. faecium; [7]): < 0.004 µg/mL | MIC90 (E. faecium; [7]): < 0.004 µg/mL | Mode (MIC) (E. faecium; [7]): < 0.004 µg/mL | Range (MIC) (E. faecium; recent clinical isolates of E. faecium, ALL (23), in µg/mL): <0.004-0.03
